The values that follow come from publication PMC2790855, “BU-32: a novel proteasome inhibitor for breast cancer” (2009).

Molecules are shown by their SMILES.

In this experiment the target is T1, 20S proteasome caspase-like activity (β1-subunit) (Homo sapiens, UniProt P28072).
T1 construct: gene PSMB6; with 20S proteasome
T1 sequence (P28072 35-239): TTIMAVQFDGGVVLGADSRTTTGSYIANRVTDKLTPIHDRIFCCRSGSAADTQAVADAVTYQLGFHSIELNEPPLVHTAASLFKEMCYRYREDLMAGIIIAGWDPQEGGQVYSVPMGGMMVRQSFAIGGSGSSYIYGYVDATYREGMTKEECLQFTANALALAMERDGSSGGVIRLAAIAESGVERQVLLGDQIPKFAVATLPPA
In words: Proteasome-Glo caspase-like assay in MDA-MB-231, MCF7 and SKBR3 cells treated […] h with […]; reference inhibitor. The class given is cell-based.

`CC(C)C[C@H](NC(=O)[C@H](Cc1ccccc1)NC(=O)c1cnccn1)B(O)O` [Bortezomib]: the “Proteasome-Glo caspase-like assay in MDA-MB-231, MCF7 and SKBR3 cells treated 24” value was “analyzed for the inhibition of chymotryptic-like, caspase-like, and tryptic-like intracellular proteasome activities”.
